In ChEMBL document CHEMBL3044586, “Design, synthesis, and anticonvulsant screening of some substituted piperazine and aniline derivatives of 5-phenyl-oxazolidin-2,4-diones and 5,5-diphenylimidazolidin-2,4 diones” (Med Chem Res, 2012):
Calls of active or inactive are those of the source. The rule behind the calls is not given here.

Legend:
Rattus norvegicus [1] = experiment: Neurotoxicity against Rattus norvegicus Wistar (rat) assessed as inability to maintain equilibrium on rod at 30 mg/kg, po measured after 0.5 hr by rotarod test; format: toxicity, organism-based; set-up: dose 30 mg/kg, route oral; conditions: in vivo
Rattus norvegicus [2] = experiment: Presynaptic agonist activity at 5HT1A receptor in Rattus norvegicus Wistar (rat) assessed as change in rectal temperature at 20 mg/kg, ip measured after 60 min (reference value: 0.0 +/- 0.1 degC); format: functional, organism-based; set-up: dose 20 mg/kg
Rattus norvegicus [3] = experiment: Neurotoxicity against Rattus norvegicus Wistar (rat) assessed as inability to maintain equilibrium on rod at 30 mg/kg, po measured after 4 hr by rotarod test; format: toxicity, organism-based; set-up: dose 30 mg/kg, route oral; conditions: in vivo
Rattus norvegicus [4] = experiment: Anticonvulsant activity in Rattus norvegicus Wistar (rat) assessed as reduction in maximal electroshock-induced seizures at 30 mg/kg, po measured after 0.5 hr; format: functional, organism-based; set-up: dose 30 mg/kg
Mus musculus [5] = experiment: Anticonvulsant activity in Mus musculus Swiss albino (mouse) assessed as reduction in maximal electroshock-induced seizure at 100 mg/kg, ip measured after 0.5 hr; format: functional, organism-based; set-up: dose 100 mg/kg
Rattus norvegicus [6] = experiment: Presynaptic agonist activity at 5HT1A receptor in Rattus norvegicus Wistar (rat) assessed as change in rectal temperature at 20 mg/kg, ip measured after 120 min (reference value: 0.0 +/- 0.1 degC); format: functional, organism-based; set-up: dose 20 mg/kg
Rattus norvegicus [7] = experiment: Postsynaptic agonist activity at 5HT1A receptor in Rattus norvegicus Wistar (rat) assessed as increase in lower lip retraction at 10 to 20 mg/kg, ip measured after 15 min; format: functional, organism-based
Mus musculus [8] = experiment: Neurotoxicity against Mus musculus Swiss albino (mouse) assessed as inability to maintain equilibrium on rod at 30 to 300 mg/kg, ip measured after 4 hr by rotarod test; format: toxicity, organism-based; set-up: dose 30-300 mg/kg, route intraperitoneal; conditions: in vivo
Rattus norvegicus [9] = experiment: Presynaptic agonist activity at 5HT1A receptor in Rattus norvegicus Wistar (rat) assessed as change in rectal temperature at 20 mg/kg, ip measured after 90 min (reference value: -0.2 +/- 0.1 degC); format: functional, organism-based; set-up: dose 20 mg/kg
Rattus norvegicus [10] = experiment: Presynaptic agonist activity at 5HT1A receptor in Rattus norvegicus Wistar (rat) assessed as change in rectal temperature at 10 mg/kg, ip measured after 60 min (reference value: 0.0 +/- 0.1 degC); format: functional, organism-based; set-up: dose 10 mg/kg
Rattus norvegicus [11] = experiment: Presynaptic agonist activity at 5HT1A receptor in Rattus norvegicus Wistar (rat) assessed as change in rectal temperature at 10 mg/kg, ip measured after 30 min (reference value: -0.1 +/- 0.1 degC); format: functional, organism-based; set-up: dose 10 mg/kg
Rattus norvegicus [12] = experiment: Presynaptic agonist activity at 5HT1A receptor in Rattus norvegicus Wistar (rat) assessed as change in rectal temperature at 20 mg/kg, ip measured after 30 min (reference value: -0.1 +/- 0.1 degC); format: functional, organism-based; set-up: dose 20 mg/kg
Mus musculus [13] = experiment: Anticonvulsant activity in Mus musculus Swiss albino (mouse) assessed as reduction in maximal electroshock-induced seizure at 300 mg/kg, ip measured after 0.5 hr; format: functional, organism-based; set-up: dose 300 mg/kg
Rattus norvegicus [14] = experiment: Anticonvulsant activity in Rattus norvegicus Wistar (rat) assessed as reduction in maximal electroshock-induced seizures at 30 mg/kg, po measured after 4 hr; format: functional, organism-based; set-up: dose 30 mg/kg
Mus musculus [15] = experiment: Anticonvulsant activity in Mus musculus Swiss albino (mouse) assessed as reduction in maximal electroshock-induced seizure at 100 mg/kg, ip measured after 4 hr; format: functional, organism-based; set-up: dose 100 mg/kg
Rattus norvegicus [16] = experiment: Presynaptic agonist activity at 5HT1A receptor in Rattus norvegicus Wistar (rat) assessed as change in rectal temperature at 10 mg/kg, ip measured after 120 min (reference value: 0.0 +/- 0.1 degC); format: functional, organism-based; set-up: dose 10 mg/kg
Rattus norvegicus [17] = experiment: Presynaptic agonist activity at 5HT1A receptor in Rattus norvegicus Wistar (rat) assessed as change in rectal temperature at 10 mg/kg, ip measured after 90 min (reference value: -0.2 +/- 0.1 degC); format: functional, organism-based; set-up: dose 10 mg/kg
Mus musculus [18] = experiment: Binding affinity to 5HT2A receptor in ip dosed Mus musculus Swiss albino (mouse) assessed as effect on +/-DOI-induced head twitching administered 60 min prior to +/-DOI-challenge measured for 20 min; format: functional, organism-based
Mus musculus [19] = experiment: Neurotoxicity against Mus musculus Swiss albino (mouse) assessed as inability to maintain equilibrium on rod at 30 to 300 mg/kg, ip measured after 0.5 hr by rotarod test; format: toxicity, organism-based; set-up: dose 30-300 mg/kg, route intraperitoneal; conditions: in vivo
Mus musculus [20] = experiment: Antagonist activity at 5HT2A receptor in ip dosed Mus musculus Swiss albino (mouse) assessed as inhibition of +/-DOI-induced head twitching administered 60 min prior to +/-DOI-challenge measured for 20 min; format: functional; conditions: read-out: ID50 (the source's name)
Mus musculus [21] = experiment: Anticonvulsant activity in Mus musculus Swiss albino (mouse) assessed as reduction in maximal electroshock-induced seizure at 30 mg/kg, ip measured after 4 hr; format: functional, organism-based; set-up: dose 30 mg/kg
Rattus norvegicus [22] = experiment: Postsynaptic antagonist activity at 5HT1A receptor in Rattus norvegicus Wistar (rat) assessed as inhibition of 8-OH-DPAT-induced lower lip retraction at 10 to 20 mg/kg, ip administered 45 min prior to 8-OH-DPAT-challenge measured after 15 min; format: functional, organism-based
Mus musculus [23] = experiment: Neurotoxicity against Mus musculus Swiss albino (mouse) assessed as inability to maintain equilibrium on rod at 100 mg/kg, ip measured after 0.5 hr by rotarod test; format: toxicity, organism-based; set-up: dose 100 mg/kg, route intraperitoneal; conditions: in vivo
Mus musculus [24] = experiment: Anticonvulsant activity in Mus musculus Swiss albino (mouse) assessed as reduction in maximal electroshock-induced seizure at 300 mg/kg, ip measured after 4 hr; format: functional, organism-based; set-up: dose 300 mg/kg
Mus musculus [25] = experiment: Neurotoxicity against Mus musculus Swiss albino (mouse) assessed as inability to maintain equilibrium on rod at 300 mg/kg, ip measured after 4 hr by rotarod test; format: toxicity, organism-based; set-up: dose 300 mg/kg, route intraperitoneal; conditions: in vivo
Mus musculus [26] = experiment: Anticonvulsant activity in Mus musculus Swiss albino (mouse) assessed as reduction in maximal electroshock-induced seizure at 30 to 300 mg/kg, ip measured after 0.5 hr; format: functional, organism-based
Rattus norvegicus [27] = experiment: Presynaptic antagonist activity at 5HT1A receptor in Rattus norvegicus Wistar (rat) assessed as change in rectal temperature at 0.1 mg/kg, sc measured after 60 min (reference value: 0.0 +/- 0.1 degC); format: functional, organism-based; set-up: dose 0.1 mg/kg
Rattus norvegicus [28] = experiment: Presynaptic antagonist activity at 5HT1A receptor in Rattus norvegicus Wistar (rat) assessed as change in rectal temperature at 0.1 mg/kg, sc measured after 90 min (reference value: -0.2 +/- 0.1 degC); format: functional, organism-based; set-up: dose 0.1 mg/kg
Rattus norvegicus [29] = experiment: Presynaptic antagonist activity at 5HT1A receptor in Rattus norvegicus Wistar (rat) assessed as change in rectal temperature at 0.1 mg/kg, sc measured after 120 min (reference value: 0.0 +/- 0.1 degC); format: functional, organism-based; set-up: dose 0.1 mg/kg
Rattus norvegicus [30] = experiment: Antagonist activity at 5HT1A receptor in Rattus norvegicus Wistar (rat) assessed as change in rectal temperature at 0.1 mg/kg, sc measured after 30 min (reference value: -0.1 +/- 0.1 degC); format: functional, organism-based; set-up: dose 0.1 mg/kg
Rattus norvegicus [31] = experiment: Postsynaptic antagonist activity at 5HT1A receptor in Rattus norvegicus Wistar (rat) assessed as inhibition of 8-OH-DPAT-induced lower lip retraction at 0.1 mg/kg, sc administered 45 min prior to 8-OH-DPAT-challenge measured after 15 min; format: functional, organism-based; set-up: dose 0.1 mg/kg

Row | Activity (Mus musculus [18]) | Compound | Activity (Rattus norvegicus [1]) | deltaT (Rattus norvegicus [2]) | Activity (Rattus norvegicus [3]) | Activity (Rattus norvegicus [4]) | Activity (Mus musculus [5]) | deltaT (Rattus norvegicus [6]) | Activity (Rattus norvegicus [7]) | Activity (Mus musculus [8]) | deltaT (Rattus norvegicus [9]) | deltaT (Rattus norvegicus [10]) | deltaT (Rattus norvegicus [11]) | deltaT (Rattus norvegicus [12]) | Activity (Rattus norvegicus [14]) | deltaT (Rattus norvegicus [16]) | deltaT (Rattus norvegicus [17]) | Activity (Mus musculus [19]) | ED50 (Mus musculus [20]) | Activity (Mus musculus [21]) | inhibition (Rattus norvegicus [22]) | also measured
1 | inactive | COc1ccc(NCCN2C(=O)NC(c3ccccc3)(c3ccccc3)C2=O)cc1 | Non-toxic | -1.5 °C | Non-toxic | inactive | Active | -1.3 °C | Active | Non-toxic | -1.8 °C | -0.6 °C | -0.5 °C | -1.2 °C | inactive | -0.6 °C | -0.8 °C | Non-toxic |  |  |  | Activity (Mus musculus [13]): Active; Activity (Mus musculus [15]): Active
2 |  | O=C1OC(c2ccccc2)C(=O)N1CCNc1ccc(Cl)cc1 (configuration not stated) | Non-toxic | -1.3 °C | Non-toxic | Active | Active | -1.3 °C |  | Non-toxic | -1.5 °C | -0.5 °C | -0.2 °C | -1.2 °C | Active | -0.5 °C | -0.7 °C | Non-toxic | 8 mg/kg | Active | Active | 
3 |  | Cc1ccc(N2CCN(CCN3C(=O)NC(c4ccccc4)(c4ccccc4)C3=O)CC2)cc1 |  |  |  |  |  |  |  |  |  |  |  |  |  |  |  |  |  |  |  | Activity (Mus musculus [23]): Toxic; Activity (Mus musculus [24]): Active; Activity (Mus musculus [25]): Toxic; Activity (Mus musculus [26]): inactive
4 |  | O=C1OC(c2ccccc2)C(=O)N1CCNc1ccc(O)cc1 (configuration not stated) | Non-toxic | -1.2 °C | Non-toxic | Active | Active | -1.1 °C |  | Non-toxic | -1.6 °C | -0.6 °C | -0.4 °C | -1 °C | Active | -0.6 °C | -0.7 °C | Non-toxic | 11 mg/kg | Active | Active | 
5 | inactive | O=C1NC(c2ccccc2)(c2ccccc2)C(=O)N1CCN1CCN(c2ccc(F)cc2)CC1 | Non-toxic | -1.6 °C | Non-toxic | inactive |  | -1.7 °C | Active | Non-toxic | -1.6 °C | -0.7 °C | -0.9 °C | -1.7 °C | Active | -0.8 °C | -0.7 °C | Non-toxic |  | Active |  | Activity (Mus musculus [26]): inactive
6 |  | COc1ccccc1N1CCN(CCN(C(=O)C2CCCCC2)c2ccccn2)CC1 |  |  |  |  |  |  |  |  |  |  |  |  |  |  |  |  |  |  |  | deltaT (Rattus norvegicus [27]): 0.2 °C; deltaT (Rattus norvegicus [28]): 0.1 °C; deltaT (Rattus norvegicus [29]): 0.2 °C; deltaT (Rattus norvegicus [30]): 0.2 °C; inhibition (Rattus norvegicus [31]): Active
